For series [1], the system named is Erk1/2 phosphorylation. Kind of series: Erk1/2 Phosphorylation Assay (western blot), Panc-1. The format is cell-based, human. Particulars: at 10 μM, * = activation. In outline: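 Phospho-Erk1/2 (Thr202/Tyr204) was detected by western blot in lysates of Panc-1 cells (KRas G12D). These had 6 h, 37° C exposure to 10 μM compound or a dilution series for IC50, in 0.3% DMSO. Cells were either starved overnight in 0.5% FBS with a 15-min 1.5 ng/ml EGF pulse, or kept unstimulated in 10% FBS.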
(A western blot detects proteins with antibodies after separation by electrophoresis.)

Series [2] relates to IL6. Kind of series: IL-6 Quantification Assay (ELISA), LPS-stimulated RAW 264.7. The format is cell-based. More on the design: inhibition: dose or concentration left out as unconfirmed. The note with it: Mus musculus, RAW264.7; read-out: IL-6: % inh.
For series [3], the system named is TNF-alpha. Kind of series: TNF-alpha Quantification Assay (ELISA), LPS-stimulated RAW 264.7. The note with it: Mus musculus, RAW264.7; at 10 μM; read-out: TNFα: % inh. The format is cell-based. On the technique in general: ELISA stands for enzyme-linked immunosorbent assay.
Series [4] is described as follows: Mouse Liver Microsome Metabolic Stability Assay. The class given is in vitro ADME. The note with it: pH 7.4, Mouse liver microsomes, 37° C., NADPH, read-out: t½. The protocol:
Biological Example 10: Assessment of Metabolic Stability in Mouse Liver Microsomes
Metabolic Stability Assay: Microsomal incubations were carried out in 96-well plates in 5 aliquots of 30 μL each (one for each time point). Liver microsomal incubation medium comprised of phosphate buffer (100 mM, pH 7.4), MgCl2 (3.3 mM), NADPH (3 mM), glucose-6-phosphate (5.3 mM), glucose-6-phosphate dehydrogenase (0.67 units/ml) with 0.42 mg of liver microsomal protein per mL. In the control reactions the NADPH-cofactor system was substituted with phosphate buffer. Test compounds (2 μM, final solvent concentration 1.6%) were incubated with microsomes at 37° C., shaking at 100 rpm. Each reaction was performed in duplicates. Five time points over 40 minutes were analyzed. The reactions were stopped by adding 5 volumes of methanol containing internal standard to incubation aliquots, followed by protein sedimentation by centrifuging at 5500 rpm for 4 minutes. Supernatants were analyzed using the HPLC system coupled with tandem mass spectrometer.
The elimination constant (kel), half-life (t1/2) and intrinsic clearance (Clint) were determined in plot of […] versus time, using linear regression analysis:
In order to indicate the quality of the linear regression analysis, the R (correlation coefficient) values are provided. In some cases, the last time point is excluded from the calculations to ensure acceptable logarithmic linearity of decay.
Table 9 show metabolic stability data for selected compounds tested in the Mouse Liver Microsome Metabolic Stability assay described above.
On the technique in general: Liver microsomes are a subcellular fraction often used to study metabolism.

Series [5] can be described thus: Kinetic Solubility Assay in pH 7.4 Buffer + 2% DMSO. The class given is physicochemical. The note with it: phosphate-buffered saline pH 7.4 with 2% DMSO, aqueous buffer, kinetic from dmso stock, 25° C., two hours. The protocol: Biological Example 9: Kinetic Solubility
Kinetic solubility assay in pH 7.4 Buffer+2% DMSO (“Kinetic Solubility Assay) was performed according to the following protocol: Briefly, using a 20 mM stock solution of the tested compounds in 100% DMSO, dilutions were prepared to a theoretical concentration of 400 μM in duplicates in phosphate-buffered saline pH 7.4 (138 mM NaCl, 2.7 mM KCl, 10 mM K-phosphate) with 2% final DMSO. The tested compounds dilutions in PBS were further allowed to equilibrate at 25° C. on a thermostatic shaker for two hours and then filtered through HTS filter plates using a vacuum manifold. The filtrates of the test compounds were diluted 2-fold with acetonitrile with 2% DMSO before measuring.
In parallel, using a 20 mM stock solution of the tested compounds in 100% DMSO, dilutions were prepared to theoretical concentrations of 0 μM (blank), 10 μM, 25 μM, 50 μM, 100 μM, and 200 μM in 50% acetonitrile/PBS with 2% final DMSO to generate calibration curves. Ondansetron was used as a reference compound to control proper assay performance. 200 μL of each sample was transferred to a 96-well plate and measured in the 230-550 nm range with a 5 nm step.
The concentrations of compounds in PBS filtrate are calculated using a dedicated Microsoft Excel calculation script. Proper absorbance wavelengths for calculations are selected for each compound manually based on absorbance maximums (absolute absorbance unit values for the minimum and maximum concentration points within the 0-3 OD range). Each final dataset is visually evaluated by the operator, and goodness of fit (R2) is calculated for each calibration curve. The effective range of this assay is approximately 2-400 μM and the compounds returning values close to the upper limit of the range may have higher actual solubility (e.g., 5′-deoxy-5-fluorouridine).
Table 8 show kinetic solubility data for selected compounds tested in the Kinetic Solubility assay described above.

SMILES strings stand for the structures.

By solubility is commonly meant the concentration that dissolves in the medium under given conditions.

`Cc1c(-c2ccn(C)n2)cn2nc(-c3nccn3C)nc(Nc3cc(OCC(F)(F)F)ccn3)c12` [Compound 129, 5-Methyl-2-(1-methyl-1H-imidazol-2-yl)-6-(1-methyl-1H-pyrazol-3-yl)-N-(4-(2,2,2-trifluoroethoxy)pyridin-2-yl)pyrrolo[2,1-f][1,2,4]triazin-4-amine]: in series [1], the “% inh of Erk1/2 phosphorylation in Panc-1” value (from here on “% inh”) was “D* (85-100% activation)”. Also, the inhibition in series [2] is 50 to 74%. Also, the inhibition at 10 µM in series [3] was in the range of 1 to 24%. Moreover, in series [4], the half-life at 2 µM is greater than 10 min.

Turning to `COc1ccnc(Nc2nc(-c3nccn3C)nn3cc(-c4ccn(C)n4)c(C)c23)c1` [Compound 102, N-(4-Methoxypyridin-2-yl)-5-methyl-2-(1-methyl-1H-imidazol-2-yl)-6-(1-methyl-1H-pyrazol-3-yl)pyrrolo[2,1-f][1,2,4]triazin-4-amine], the “% inh” value in series [1] is on record as “A* (1-25% activation)”. Further, the inhibition in series [2] lay in the range of 75 to 100%. In addition, the inhibition at 10 µM in series [3] was 25 to 49%. The solubility at 2 h in series [5] was greater than 30 µM. In addition, in series [4], the half-life at 2 µM is greater than 10 min.

For the compound `Cc1ccnc(Nc2nc(-c3nccn3C)nn3cc(-c4ccn(C5CC5)n4)c(C)c23)c1` [Compound 144, 6-(1-Cyclopropyl-1H-pyrazol-3-yl)-5-methyl-2-(1-methyl-1H-imidazol-2-yl)-N-(4-methylpyridin-2-yl)pyrrolo[2,1-f][1,2,4]triazin-4-amine], the “% inh” value in series [1] was “A (1-25% inhibition)”. Also, the inhibition in series [2] lay in the range of 25 to 49%. Besides, in series [3], the inhibition at 10 µM was in the range of 1 to 24%. Further, in series [5], the solubility at 2 h is less than 10 µM. Further, the half-life at 2 µM in series [4] was greater than 10 min.

For the compound `Cc1c(-c2ccn(C3CC3)n2)cn2nc(-c3nccn3C)nc(Nc3cc(OC4CC4)ccn3)c12` [Compound 142, N-(4-Cyclopropoxypyridin-2-yl)-6-(1-cyclopropyl-1H-pyrazol-3-yl)-5-methyl-2-(1-methyl-1H-imidazol-2-yl)pyrrolo[2,1-f][1,2,4]triazin-4-amine], the “% inh” value in series [1] is “C (50-84% inhibition)”. In addition, the inhibition in series [2] lay in the range of 25 to 49%. For the same compound, the inhibition at 10 µM in series [3] is 0%. Also, the solubility at 2 h in series [5] lay in the range of 10 to 30 µM. Moreover, the half-life at 2 µM in series [4] is greater than 10 min.

For the compound `Cc1c(-c2ccn(C)n2)cn2nc(-c3nccn3C)nc(Nc3cc(OC4CC4)ccn3)c12` [Compound 126, N-(4-Cyclopropoxypyridin-2-yl)-5-methyl-2-(1-methyl-1H-imidazol-2-yl)-6-(1-methyl-1H-pyrazol-3-yl)pyrrolo[2,1-f][1,2,4]triazin-4-amine], the “% inh” value in series [1] was “D* (85-100% activation)”. Also, in series [2], the inhibition was in the range of 25 to 49%. The inhibition at 10 µM in series [3] came out at 0%. Besides, in series [4], the half-life at 2 µM was greater than 10 min.

For `COc1ccnc(Nc2nc(-c3nccn3C)nn3cc(-c4cccnc4)c(C)c23)c1` [Compound 157, N-(4-Methoxy-pyridin-2-yl)-5-methyl-2-(1-methyl-1H-imidazol-2-yl)-6-(pyridin-3-yl)pyrrolo[2,1-f][1,2,4]triazin-4-amine], the “% inh” value in series [1] is reported as “C* (46-84% activation)”. The inhibition in series [2] lay within 1 to 24%. Further, the inhibition at 10 µM in series [3] came to 0%. Also, the solubility at 2 h in series [5] was less than 10 µM. The half-life at 2 µM in series [4] is greater than 10 min.

Take `CCOc1ccnc(Nc2nc(-c3nccn3C)nn3cc(-c4ccn(C5CC5)n4)c(C)c23)c1` [Compound 141, 6-(1-Cyclopropyl-1H-pyrazol-3-yl)-N-(4-ethoxypyridin-2-yl)-5-methyl-2-(1-methyl-1H-imidazol-2-yl)pyrrolo[2,1-f][1,2,4]triazin-4-amine]: the “% inh” value in series [1] was “B (26-49% inhibition)”. The inhibition in series [2] was 25 to 49%. Further, the inhibition at 10 µM in series [3] is 0%. The solubility at 2 h in series [5] lay within 10 to 30 µM. Moreover, the half-life at 2 µM in series [4] is greater than 10 min.

As for `Cc1c(-c2ccn(C)n2)cn2nc(-c3nccn3C)nc(Nc3cc(OC(F)(F)F)ccn3)c12` [Compound 127, 5-Methyl-2-(1-methyl-1H-imidazol-2-yl)-6-(1-methyl-1H-pyrazol-3-yl)-N-(4-(trifluoromethoxy)pyridin-2-yl)pyrrolo[2,1-f][1,2,4]triazin-4-amine], the “% inh” value in series [1] is reported as “D* (85-100% activation)”. In series [2], the inhibition lay within 50 to 74%. Moreover, the inhibition at 10 µM in series [3] was determined as 0%. For the same compound, the half-life at 2 µM in series [4] was less than 10 min.

Regarding `Cc1c(-c2ccn(C)n2)cn2nc(-c3nccn3C)nc(Nc3ccccn3)c12` [Compound 118, 5-Methyl-2-(1-methyl-1H-imidazol-2-yl)-6-(1-methyl-1H-pyrazol-3-yl)-N-(pyridin-2-yl)pyrrolo[2,1-f][1,2,4]triazin-4-amine], the “% inh” value in series [1] is listed as “D* (85-100% activation)”. In addition, in series [2], the inhibition was in the range of 25 to 49%. The inhibition at 10 µM in series [3] is 1 to 24%. For the same compound, the solubility at 2 h in series [5] was greater than 30 µM.

As for `Cc1c(-c2cccnc2)cn2nc(-c3nccn3C)nc(Nc3ccncn3)c12` [Compound 156, 5-Methyl-2-(1-methyl-1H-imidazol-2-yl)-6-(pyridin-3-yl)-N-(pyrimidin-4-yl)pyrrolo[2,1-f][1,2,4]triazin-4-amine], the “% inh” value in series [1] was “D* (85-100% activation)”. Further, in series [2], the inhibition lay in the range of 1 to 24%. In series [3], the inhibition at 10 µM came out at 0%. Also, the half-life at 2 µM in series [4] is greater than 10 min.

As for `Cc1c(-c2ccn(C)n2)cn2nc(-c3nccn3C)nc(Nc3cc4n(n3)CCC4)c12` [Compound 100, N-(5,6-Dihydro-4H-pyrrolo[1,2-b]pyrazol-2-yl)-5-methyl-2-(1-methyl-1H-imidazol-2-yl)-6-(1-methyl-1H-pyrazol-3-yl)pyrrolo[2,1-f][1,2,4]triazin-4-amine], in series [1], the “% inh” value is on record as “C* (46-84% activation)”. Further, the inhibition in series [2] is 50 to 74%. In addition, the inhibition at 10 µM in series [3] came out at 0%. For the same compound, the solubility at 2 h in series [5] lay within 10 to 30 µM.

As for `Cc1c(-c2ccn(C)n2)cn2nc(-c3nccn3C)nc(Nc3cc(OC(F)F)ccn3)c12` [Compound 128, N-(4-(Difluoromethoxy)pyridin-2-yl)-5-methyl-2-(1-methyl-1H-imidazol-2-yl)-6-(1-methyl-1H-pyrazol-3-yl)pyrrolo[2,1-f][1,2,4]triazin-4-amine], in series [1], the “% inh” value is listed as “D* (85-100% activation)”. In addition, the inhibition in series [2] was in the range of 25 to 49%. Moreover, the inhibition at 10 µM in series [3] is 25 to 49%. The half-life at 2 µM in series [4] was greater than 10 min.

As to `Cc1c(-c2ccn(C)n2)cn2nc(-c3nccn3C)nc(Nc3ccncn3)c12.Cl` [Compound 116, 5-Methyl-2-(1-methyl-1H-imidazol-2-yl)-6-(1-methyl-1H-pyrazol-3-yl)-N-(pyrimidin-4-yl)pyrrolo[2,1-f][1,2,4]triazin-4-amine hydrochloride salt], the “% inh” value in series [1] is given as “D* (85-100% activation)”. Besides, the inhibition in series [2] fell in the range of 25 to 49%. For the same compound, the inhibition at 10 µM in series [3] came to 0%. In series [5], the solubility at 2 h lay in the range of 10 to 30 µM.

Source of the values: patent US12459951B2, “Compounds that interact with RAS superfamily proteins for treatment of cancers, inflammatory diseases, rasopathies, and fibrotic disease” (SHY Therapeutics, LLC, priority 2022, dated 2025).
